Broadly, the EC50 is the concentration at which the effect is half-maximal.

Our source for the EC50 values is patent US11254663B2 (BRISTOL-MYERS SQUIBB COMPANY, priority 2019, dated 2022).

Chain of FXR (Q96RI1 262-486): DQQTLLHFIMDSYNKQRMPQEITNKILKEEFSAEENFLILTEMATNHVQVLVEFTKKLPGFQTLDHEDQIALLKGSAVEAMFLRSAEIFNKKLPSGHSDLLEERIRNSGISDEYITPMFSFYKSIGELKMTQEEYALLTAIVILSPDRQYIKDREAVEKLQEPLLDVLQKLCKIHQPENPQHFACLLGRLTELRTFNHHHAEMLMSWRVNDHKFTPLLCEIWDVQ

This test has as its target FXR (Homo sapiens (Human), UniProt Q96RI1). Description: transient human FXR/Gal4-luciferase reporter assay. Particulars: Gal4-hFXR fusion construct, HEK293 reporter cells; response relative to 8 μM GW-4064. The class given is cell-based. In short, it runs like this: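 Compound exposure ran overnight at 37 °C and activity was measured as luminescence with Steady-Glo reagent. The cells were a HEK293 line stably expressing firefly luciferase under five Gal4 response elements. They were transiently transfected, one night beforehand, with a plasmid encoding Gal4 DNA-binding domain fused to the human FXR ligand-binding domain.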
Consider `O=C(N(CC12CCC(c3nc(C4CC4)no3)(CC1)CC2)c1cccc(-c2ccc(F)cn2)c1)C12CC(F)(C1)C2` [Example 287, N-((4-(3-cyclopropyl-1,2,4-oxadiazol-5-yl)bicyclo[2.2.2]octan-1-yl)methyl)-3-fluoro-N-(3-(5-fluoropyridin-2-yl)phenyl)bicyclo[1.1.1]pentane-1-carboxamide], for which the midpoint of the response, the EC50, lay at 316 nM.

Compound `O=C(N(CC12CCC(c3nc(C4CC4)no3)(CC1)CC2)c1cccc(-c2ccn3ccnc3c2)c1)C12CC(F)(C1)C2` [Example 288, N-((4-(3-cyclopropyl-1,2,4-oxadiazol-5-yl)bicyclo[2.2.2]octan-1-yl)methyl)-3-fluoro-N-(3-(imidazo[1,2-a]pyridin-7-yl)phenyl)bicyclo[1.1.1]pentane-1-carboxamide] displayed an EC50 of 539 nM.

The compound `CCOc1ncc(-c2cccc(N(CC34CCC(c5nc(C6CC6)no5)(CC3)CC4)C(=O)C34CC(F)(C3)C4)c2)cn1` [Example 289, N-((4-(3-cyclopropyl-1,2,4-oxadiazol-5-yl)bicyclo[2.2.2]octan-1-yl)methyl)-N-(3-(2-ethoxypyrimidin-5-yl)phenyl)-3-fluorobicyclo[1.1.1]pentane-1-carboxamide] yielded an EC50 of 48 nM.

Take `CCOc1ccc(-c2cccc(N(CC34CCC(c5nc(C6CC6)no5)(CC3)CC4)C(=O)C34CC(F)(C3)C4)c2)cc1` [Example 290, N-((4-(3-cyclopropyl-1,2,4-oxadiazol-5-yl)bicyclo[2.2.2]octan-1-yl)methyl)-N-(4′-ethoxy-[1,1′-biphenyl]-3-yl)-3-fluorobicyclo[1.1.1]pentane-1-carboxamide]: the EC50 worked out at 60 nM.

On to `O=C(N(CC12CCC(c3nc(C4CC4)no3)(CC1)CC2)c1cccc(-c2nccc(C(F)(F)F)n2)c1)C12CC(F)(C1)C2` [Example 291, N-((4-(3-cyclopropyl-1,2,4-oxadiazol-5-yl)bicyclo[2.2.2]octan-1-yl)methyl)-3-fluoro-N-(3-(4-(trifluoromethyl)pyrimidin-2-yl)phenyl)bicyclo[1.1.1]pentane-1-carboxamide], for which the EC50 was found to be 439 nM.

Consider `N#Cc1cccc(-c2cccc(N(CC34CCC(c5nc(C6CC6)no5)(CC3)CC4)C(=O)C34CC(F)(C3)C4)c2)n1` [Example 292, N-(3-(6-cyanopyridin-2-yl)phenyl)-N-((4-(3-cyclopropyl-1,2,4-oxadiazol-5-yl)bicyclo[2.2.2]octan-1-yl)methyl)-3-fluorobicyclo[1.1.1]pentane-1-carboxamide], for which the response was half-maximal at 148 nM (EC50).

In the case of `O=C(N(CC12CCC(c3nc(C4CC4)no3)(CC1)CC2)c1cccc(-c2nc(C(F)(F)F)ccc2F)c1)C12CC(F)(C1)C2` [Example 293, N-((4-(3-cyclopropyl-1,2,4-oxadiazol-5-yl)bicyclo[2.2.2]octan-1-yl)methyl)-3-fluoro-N-(3-(3-fluoro-6-(trifluoromethyl)pyridin-2-yl)phenyl)bicyclo[1.1.1]pentane-1-carboxamide], the EC50 amounted to 679 nM.

The compound `N#Cc1cc(-c2cccc(N(CC34CCC(c5nc(C6CC6)no5)(CC3)CC4)C(=O)C34CC(F)(C3)C4)c2)ccc1F` [Example 294, N-(3′-cyano-4′-fluoro-[1,1′-biphenyl]-3-yl)-N-((4-(3-cyclopropyl-1,2,4-oxadiazol-5-yl)bicyclo[2.2.2]octan-1-yl)methyl)-3-fluorobicyclo[1.1.1]pentane-1-carboxamide] yielded an EC50 of 579 nM.

In turn, `Cc1ccc(-c2cccc(N(CC34CCC(c5nc(C6CC6)no5)(CC3)CC4)C(=O)C34CC(F)(C3)C4)c2)nn1` [Example 295, N-((4-(3-cyclopropyl-1,2,4-oxadiazol-5-yl)bicyclo[2.2.2]octan-1-yl)methyl)-3-fluoro-N-(3-(6-methylpyridazin-3-yl)phenyl)bicyclo[1.1.1]pentane-1-carboxamide] had an EC50 of 839 nM.

`COc1ccc(-c2cccc(N(CC34CCC(c5nc(C6CC6)no5)(CC3)CC4)C(=O)C34CC(F)(C3)C4)c2)cc1C#N` [Example 296, N-(3′-cyano-4′-methoxy-[1,1′-biphenyl]-3-yl)-N-((4-(3-cyclopropyl-1,2,4-oxadiazol-5-yl)bicyclo[2.2.2]octan-1-yl)methyl)-3-fluorobicyclo[1.1.1]pentane-1-carboxamide] came in with an EC50 of 294 nM.

`N#Cc1ccc(-c2cccc(N(CC34CCC(c5nc(C6CC6)no5)(CC3)CC4)C(=O)C34CC(F)(C3)C4)c2)nc1` [Example 297, N-(3-(5-cyanopyridin-2-yl)phenyl)-N-((4-(3-cyclopropyl-1,2,4-oxadiazol-5-yl)bicyclo[2.2.2]octan-1-yl)methyl)-3-fluorobicyclo[1.1.1]pentane-1-carboxamide] gave an EC50 of 1250 nM.

In turn, `O=C(N(CC12CCC(c3nc(C4CC4)no3)(CC1)CC2)c1cccc(-c2ccn3ncnc3c2)c1)C12CC(F)(C1)C2` [Example 298, N-(3-([1,2,4]triazolo[1,5-a]pyridin-7-yl)phenyl)-N-((4-(3-cyclopropyl-1,2,4-oxadiazol-5-yl)bicyclo[2.2.2]octan-1-yl)methyl)-3-fluorobicyclo[1.1.1]pentane-1-carboxamide] returned an EC50 of 1680 nM.

Regarding `O=C(N(CC12CCC(c3nc(C4CC4)no3)(CC1)CC2)c1cccc(-c2cccc(OC(F)(F)C(F)F)c2)c1)C12CC(F)(C1)C2` [Example 299, N-((4-(3-cyclopropyl-1,2,4-oxadiazol-5-yl)bicyclo[2.2.2]octan-1-yl)methyl)-3-fluoro-N-(3′-(1,1,2,2-tetrafluoroethoxy)-[1,1′-biphenyl]-3-yl)bicyclo[1.1.1]pentane-1-carboxamide], a half-maximal effect (EC50) was put at 660 nM.

As to `Cc1ccnc(-c2cccc(N(CC34CCC(c5nc(C6CC6)no5)(CC3)CC4)C(=O)C34CC(F)(C3)C4)c2)n1` [Example 300, N-((4-(3-cyclopropyl-1,2,4-oxadiazol-5-yl)bicyclo[2.2.2]octan-1-yl)methyl)-3-fluoro-N-(3-(4-methylpyrimidin-2-yl)phenyl)bicyclo[1.1.1]pentane-1-carboxamide], a half-maximal effect (EC50) was put at 413 nM.

`COc1ccc(-c2cccc(N(CC34CCC(c5nc(C6CC6)no5)(CC3)CC4)C(=O)C34CC(F)(C3)C4)c2)cc1OC` [Example 301, N-((4-(3-cyclopropyl-1,2,4-oxadiazol-5-yl)bicyclo[2.2.2]octan-1-yl)methyl)-N-(3′,4′-dimethoxy-[1,1′-biphenyl]-3-yl)-3-fluorobicyclo[1.1.1]pentane-1-carboxamide] yielded an EC50 of 519 nM.

With `N#Cc1ccc(-c2cccc(N(CC34CCC(c5nc(C6CC6)no5)(CC3)CC4)C(=O)C34CC(F)(C3)C4)c2)cc1` [Example 302, N-(4′-cyano-[1,1′-biphenyl]-3-yl)-N-((4-(3-cyclopropyl-1,2,4-oxadiazol-5-yl)bicyclo[2.2.2]octan-1-yl)methyl)-3-fluorobicyclo[1.1.1]pentane-1-carboxamide], a half-maximal response (EC50) required 861 nM.

As to `Cc1nc2cc(-c3cccc(N(CC45CCC(c6nc(C7CC7)no6)(CC4)CC5)C(=O)C45CC(F)(C4)C5)c3)ccc2s1` [Example 303, N-((4-(3-cyclopropyl-1,2,4-oxadiazol-5-yl)bicyclo[2.2.2]octan-1-yl)methyl)-3-fluoro-N-(3-(2-methylbenzo[d]thiazol-5-yl)phenyl)bicyclo[1.1.1]pentane-1-carboxamide], the EC50 came out at 349 nM.

The compound `Cn1ncc2cc(-c3cccc(N(CC45CCC(c6nc(C7CC7)no6)(CC4)CC5)C(=O)C45CC(F)(C4)C5)c3)ccc21` [Example 304, N-((4-(3-cyclopropyl-1,2,4-oxadiazol-5-yl)bicyclo[2.2.2]octan-1-yl)methyl)-3-fluoro-N-(3-(1-methyl-1H-indazol-5-yl)phenyl)bicyclo[1.1.1]pentane-1-carboxamide] gave an EC50 of 248 nM.

`Cc1nc2cc(-c3cccc(N(CC45CCC(c6nc(C7CC7)no6)(CC4)CC5)C(=O)C45CC(F)(C4)C5)c3)ccc2o1` [Example 305, N-((4-(3-cyclopropyl-1,2,4-oxadiazol-5-yl)bicyclo[2.2.2]octan-1-yl)methyl)-3-fluoro-N-(3-(2-methylbenzo[d]oxazol-5-yl)phenyl)bicyclo[1.1.1]pentane-1-carboxamide] displayed an EC50 of 301 nM.

In turn, `N#Cc1cnc2ccc(-c3cccc(N(CC45CCC(c6nc(C7CC7)no6)(CC4)CC5)C(=O)C45CC(F)(C4)C5)c3)nn12` [Example 306, N-(3-(3-cyanoimidazo[1,2-b]pyridazin-6-yl)phenyl)-N-((4-(3-cyclopropyl-1,2,4-oxadiazol-5-yl)bicyclo[2.2.2]octan-1-yl)methyl)-3-fluorobicyclo[1.1.1]pentane-1-carboxamide] returned a half-maximal effective concentration (EC50) of 386 nM.

With `O=C(N(CC12CCC(c3nc(C4CC4)no3)(CC1)CC2)c1cccc(-c2ccn3cnnc3c2)c1)C12CC(F)(C1)C2` [Example 307, N-(3-([1,2,4]triazolo[4,3-a]pyridin-7-yl)phenyl)-N-((4-(3-cyclopropyl-1,2,4-oxadiazol-5-yl)bicyclo[2.2.2]octan-1-yl)methyl)-3-fluorobicyclo[1.1.1]pentane-1-carboxamide], a half-maximal response (EC50) required 832 nM.

Take `O=C(N(CC12CCC(c3nc(C4CC4)no3)(CC1)CC2)c1cccc(-c2ccc(OC(F)F)cc2)c1)C12CC(F)(C1)C2` [Example 308, N-((4-(3-cyclopropyl-1,2,4-oxadiazol-5-yl)bicyclo[2.2.2]octan-1-yl)methyl)-N-(4′-(difluoromethoxy)-[1,1′-biphenyl]-3-yl)-3-fluorobicyclo[1.1.1]pentane-1-carboxamide]: the EC50 came out at 15 nM.

In the case of `O=C(N(CC12CCC(c3nc(C4CC4)no3)(CC1)CC2)c1cccc(-c2cccn3ncnc23)c1)C12CC(F)(C1)C2` [Example 309, N-(3-([1,2,4]triazolo[1,5-a]pyridin-8-yl)phenyl)-N-((4-(3-cyclopropyl-1,2,4-oxadiazol-5-yl)bicyclo[2.2.2]octan-1-yl)methyl)-3-fluorobicyclo[1.1.1]pentane-1-carboxamide], the EC50 was determined as 221 nM.
